Among the data in patent publication US20240059689A1, “PURINE DERIVATIVES AS ANTICANCER AGENTS” (Tango Therapeutics, Inc., priority 2021, published 2024) are IC50 values, retold here.

Where two headings read alike, the source gives them in different places.

In assay [1] the target is USP1-UAF1 (Homo sapiens, UniProt O94782). The experiment in a line: Ubiquitin Rhodamine assay of USP1-UAF1 activity. Format: biochemical. On the procedure:
Certain compounds of the disclosure were assessed for USP1-UAF1 activity in a Ubiquitin Rhodamine assay as described in Biology Example 1.

Assay [2] concerns MDA-MB-436. The assay can be described thus: Viability assay, BRCA1 mutant cell line MDA-MB-436. Format: cell-based. Particulars: BRCA1 mutant MDA-MB-436, read-out: MDA-MB-436 rel IC50. From the text: (§1) Table 1 also indicates IC50 values in a viability assay for a non-isogenic pair of BRCA1 mutant (column 5-MDA-MB-436) and BRCA1 WT (column 6—HCC1954) cell lines. These values indicate the effect of treatment with compound on cell survival.

For assay [3], the system named is HCC1954. The experiment in a line: Viability assay, BRCA1 WT cell line HCC1954. Format: cell-based. Particulars: read-out: HCC1954 rel IC50.
From the text: as §1

The mark [4] stands for this setting: Homo sapiens, MDA-MB-436, viability.
The mark [5] stands for this setting: Homo sapiens, HCC1954, viability.

USP1-UAF1, sequence (O94782 whole entry): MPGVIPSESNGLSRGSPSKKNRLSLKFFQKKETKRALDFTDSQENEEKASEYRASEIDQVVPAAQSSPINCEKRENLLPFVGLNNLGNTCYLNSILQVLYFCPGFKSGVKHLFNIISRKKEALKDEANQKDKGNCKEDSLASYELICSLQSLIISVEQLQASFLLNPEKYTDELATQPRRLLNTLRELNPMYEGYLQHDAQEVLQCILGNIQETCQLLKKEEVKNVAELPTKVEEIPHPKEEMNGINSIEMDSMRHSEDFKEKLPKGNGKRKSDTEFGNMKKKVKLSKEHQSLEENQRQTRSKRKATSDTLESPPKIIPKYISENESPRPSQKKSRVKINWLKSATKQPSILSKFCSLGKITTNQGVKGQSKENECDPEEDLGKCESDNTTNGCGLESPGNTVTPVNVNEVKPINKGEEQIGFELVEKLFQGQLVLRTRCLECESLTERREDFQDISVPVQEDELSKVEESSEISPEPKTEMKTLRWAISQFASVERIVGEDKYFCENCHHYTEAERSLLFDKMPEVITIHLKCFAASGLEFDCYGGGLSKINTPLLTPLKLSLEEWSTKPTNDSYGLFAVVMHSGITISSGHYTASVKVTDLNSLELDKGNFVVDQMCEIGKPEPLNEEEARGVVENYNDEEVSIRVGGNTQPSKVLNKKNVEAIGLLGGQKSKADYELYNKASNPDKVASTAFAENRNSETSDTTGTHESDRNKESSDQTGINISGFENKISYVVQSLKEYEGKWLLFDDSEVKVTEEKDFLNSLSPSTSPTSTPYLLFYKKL
USP1-UAF1, sequence (Q8TAF3 whole entry partner): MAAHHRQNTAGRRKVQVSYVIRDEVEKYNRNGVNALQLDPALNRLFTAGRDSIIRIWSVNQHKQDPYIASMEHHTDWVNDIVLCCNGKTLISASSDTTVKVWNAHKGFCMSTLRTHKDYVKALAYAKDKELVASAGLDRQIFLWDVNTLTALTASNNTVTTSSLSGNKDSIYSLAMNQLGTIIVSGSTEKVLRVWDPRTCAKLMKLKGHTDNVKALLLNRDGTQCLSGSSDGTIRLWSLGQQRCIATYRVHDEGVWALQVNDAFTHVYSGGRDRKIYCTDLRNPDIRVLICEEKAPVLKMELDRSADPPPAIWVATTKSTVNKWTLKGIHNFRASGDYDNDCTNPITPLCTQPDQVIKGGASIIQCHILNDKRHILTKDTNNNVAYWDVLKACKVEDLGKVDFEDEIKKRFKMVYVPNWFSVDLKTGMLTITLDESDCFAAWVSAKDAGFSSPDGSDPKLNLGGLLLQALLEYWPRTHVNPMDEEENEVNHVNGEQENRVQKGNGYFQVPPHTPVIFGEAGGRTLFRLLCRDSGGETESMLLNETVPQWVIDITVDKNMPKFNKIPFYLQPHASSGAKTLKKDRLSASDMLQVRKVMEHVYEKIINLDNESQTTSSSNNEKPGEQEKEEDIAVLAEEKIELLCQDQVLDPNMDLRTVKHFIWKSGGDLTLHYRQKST

Regarding `CC(C)c1ccccc1-c1ncc2c(n1)n(Cc1ccc(N3CCC(C(F)(F)F)C3)cc1)c(=N)n2C` (single isomer, unassigned) [Example A-10d, 2-(2-isopropylphenyl)-7-methyl-9-(4-(3-(trifluoromethyl)pyrrolidin-1-yl)benzyl)-7,9-dihydro-8H-purin-8-imine], the concentration for half-maximal inhibition (IC50) (in general, the concentration at which inhibition is half-maximal) in assay [1] fell in the range of 100 to 10000 nM.
For the compound `CC(C)c1ccccc1-c1ncc2c(n1)n(Cc1ccc(N3CCC(C(F)(F)F)C3)cc1)c(=N)n2C` (single isomer, unassigned) [Example A-10e, 2-(2-isopropylphenyl)-7-methyl-9-(4-(3-(trifluoromethyl)pyrrolidin-1-yl)benzyl)-7,9-dihydro-8H-purin-8-imine], the concentration for half-maximal inhibition (IC50) in assay [1] lay in the range of 100 to 10000 nM.
For the compound `Cc1nc(-c2ccccc2)nc2c1n(C)c(=N)n2Cc1ccc(-c2nc(C(F)(F)F)cn2C)cc1` (single isomer, unassigned) [Example A-15b, 6,7-dimethyl-9-(4-(1-methyl-4-(trifluoromethyl)-1H-imidazol-2-yl)benzyl)-2-phenyl-7,9-dihydro-8H-purin-8-imine], the figures for the half-inhibitory concentration (IC50) in assay [1], in assay [2] (setting [4]) and in assay [3] (setting [5]) were 100 to 10000 nM, 0.25 to 10 µM and 0.25 to 10 µM, respectively.
In the case of `CC(C)c1ccccc1-c1ncc2c(n1)n(C(C)C1CCN(c3nc(Cl)cn3C)CC1)c(=N)n2C` (single isomer, unassigned) [Example A-26d, 9-(1-(1-(4-chloro-1-methyl-1H-imidazol-2-yl)piperidin-4-yl)ethyl)-2-(2-isopropylphenyl)-7-methyl-7,9-dihydro-8H-purin-8-imine], the IC50 in assay [1] is 100 to 10000 nM; in assay [2] (viability) it was 0.25 to 10 µM; in assay [3] (viability) it was at least 10 µM.
On to `CC(C)c1ccccc1-c1ncc2c(n1)n(Cc1ccc(-c3nccn3C)cc1)c(=N)n2C` [Example A-2, 2-(2-isopropylphenyl)-7-methyl-9-(4-(1-methyl-1H-imidazol-2-yl)benzyl)-7H-purin-8(9H)-imine], for which the 50% inhibitory concentration (IC50) is 100 to 10000 nM in assay [1], 0.25 to 10 µM in assay [2] (setting [4]) and at least 10 µM in assay [3] (setting [5]).
Turning to `CC(C)c1ccccc1-c1ncc2c(n1)n(Cc1ccc(-c3ncc[nH]3)cc1)c(=N)n2C` [Example A-4, 9-(4-(1H-imidazol-2-yl)benzyl)-2-(2-isopropylphenyl)-7-methyl-7H-purin-8(9H)-imine], the IC50 in assay [1] fell in the range of 100 to 10000 nM.
Regarding `CC(C)c1ccccc1-c1ncc2c(n1)n(Cc1ccc(-c3cc(Cl)cn3C)cc1)c(=N)n2C` [Example A-7, 9-(4-(4-chloro-1-methyl-1H-pyrrol-2-yl)benzyl)-2-(2-isopropylphenyl)-7-methyl-7,9-dihydro-8H-purin-8-imine], the values for the IC50 in assay [1], in assay [2] (setting [4]) and in assay [3] (setting [5]) were 100 to 10000 nM, 0.25 to 10 µM and 0.25 to 10 µM, respectively.
Consider `COc1nc(-c2ccccc2C(C)C)nc2c1n(C)c(=N)n2Cc1ccc(-c2nc(C(F)(F)F)cn2C)cc1` [Example A-20, 2-(2-isopropylphenyl)-6-methoxy-7-methyl-9-(4-(1-methyl-4-(trifluoromethyl)-1H-imidazol-2-yl)benzyl)-7,9-dihydro-8H-purin-8-imine], for which the IC50 in assay [1] lay within 100 to 10000 nM; in assay [2] (setting [4]) it was 0.25 to 10 µM; in assay [3] (setting [5]) it was 0.25 to 10 µM.
For `CC(C)c1ccccc1-c1nc(O)c2c(n1)n(Cc1ccc(-c3nc(C(F)(F)F)cn3C)cc1)c(=N)n2C` [Example A-32, 8-imino-2-(2-isopropylphenyl)-7-methyl-9-(4-(1-methyl-4-(trifluoromethyl)-1H-imidazol-2-yl)benzyl)-8,9-dihydro-7H-purin-6-ol], the IC50 is 100 to 10000 nM in assay [1], 0.25 to 10 µM in assay [2] (setting [4]) and at least 10 µM in assay [3] (setting [5]).
The matching figures for `CNC(=O)c1nc(-c2ccccc2C(C)C)nc2c1n(C)c(=N)n2Cc1ccc(-c2nc(C(F)(F)F)cn2C)cc1` [Example A-39, 8-imino-2-(2-isopropylphenyl)-N, 7-dimethyl-9-(4-(1-methyl-4-(trifluoromethyl)-1H-imidazol-2-yl)benzyl)-8,9-dihydro-7H-purine-6-carboxamide]: 100 to 10000 nM, 0.25 to 10 µM and at least 10 µM.
For `CC(C)c1ccccc1-c1nc(C(=O)N(C)C)c2c(n1)n(Cc1ccc(-c3nc(C(F)(F)F)cn3C)cc1)c(=N)n2C` [Example A-40, 8-imino-2-(2-isopropylphenyl)-N,N, 7-trimethyl-9-(4-(1-methyl-4-(trifluoromethyl)-1H-imidazol-2-yl)benzyl)-8,9-dihydro-7H-purine-6-carboxamide], the IC50 is 100 to 10000 nM in assay [1], 0.25 to 10 µM in assay [2] (setting [4]) and at least 10 µM in assay [3] (setting [5]).
The matching figures for `CC#Cc1nc(-c2ccccc2Cl)nc2c1n(C)c(=N)n2Cc1ccc(-c2nc(Cl)cn2C)cc1` [Example A-45, 9-(4-(4-chloro-1-methyl-1H-imidazol-2-yl)benzyl)-2-(2-chlorophenyl)-7-methyl-6-(prop-1-yn-1-yl)-7,9-dihydro-8H-purin-8-imine]: 100 to 10000 nM, 0.25 to 10 µM and 0.25 to 10 µM.
Regarding `Cn1cc(Cl)nc1-c1ccc(Cn2c(=N)n(C)c3c(C#CC4CC4)nc(-c4ccccc4Cl)nc32)cc1` [Example A-46, 9-(4-(4-chloro-1-methyl-1H-imidazol-2-yl)benzyl)-2-(2-chlorophenyl)-6-(cyclopropylethynyl)-7-methyl-7,9-dihydro-8H-purin-8-imine], the IC50 in assay [2] (setting [4]) and in assay [3] (setting [5]) was 0.25 to 10 µM each time.
As for `Cc1cccc(Cl)c1-c1ncc2c(n1)n(Cc1ccc(-c3nc(C(F)(F)F)cn3C)cc1)c(=N)n2C` [Example B-7, 2-(2-chloro-6-methylphenyl)-7-methyl-9-(4-(1-methyl-4-(trifluoromethyl)-1H-imidazol-2-yl)benzyl)-7,9-dihydro-8H-purin-8-imine], the half-inhibitory concentration (IC50) in assay [1] lay in the range of 30 to 100 nM.
Regarding `CC(C)c1ccccc1-c1ncc2c(n1)n(CC1CCC(c3nc(C(F)(F)F)cn3C)CC1)c(=N)n2C` (centres unmarked) [Example T-006], the IC50 in assay [1] lay within 100 to 10000 nM; in assay [2] (setting [4]), 0.25 to 10 µM; in assay [3] (setting [5]) it was 0.25 to 10 µM.
As for `COc1ncnc(C2CC2)c1-c1ncc2c(n1)n(Cc1ccc(-c3nc(C(F)(F)F)cn3C)s1)c(=N)n2C` [Example T-007], the IC50 in assay [1] was 100 to 10000 nM; in assay [2] (setting [4]) it was 0.25 to 10 µM; in assay [3] (setting [5]) it was at least 10 µM.
The matching figures for `Cc1cnn(C)c1-c1ncc2c(n1)n(Cc1ccc(-c3nc(C(F)(F)F)cn3C)cc1)c(=N)n2C` [Example T-012]: 100 to 10000 nM, 0.25 to 10 µM and at least 10 µM.
The matching figures for `COc1ncnc(C2CC2)c1-c1ncc2c(n1)n(Cc1cc(-c3nc(C(F)(F)F)cn3C)cs1)c(=N)n2C` [Example T-014]: 100 to 10000 nM, 0.25 to 10 µM and at least 10 µM.
As to `Cn1cc(C(F)(F)F)nc1-c1ccc(Cn2c(=N)n(C)c3cnc(-c4c(C5CC5)cnn4C)nc32)cc1` [Example T-017], the concentration for half-maximal inhibition (IC50) in assay [1] is 100 to 10000 nM; in assay [2] (setting [4]), 0.25 to 10 µM; in assay [3] (setting [5]), at least 10 µM.
The matching figures for `Cn1cc(C(F)(F)F)nc1-c1ccc(Cn2c(=N)n(C)c3cnc(-c4c(C#N)cnn4C)nc32)cc1` [Example T-022]: 100 to 10000 nM, 0.25 to 10 µM and at least 10 µM.
As to `CC(C)c1ccccc1-c1ncc2c(n1)n(Cc1ccc(N3C[C@@H](C(F)(F)F)C[C@H]3C)cc1)c(=N)n2C` [Example T-024], the IC50 in assay [1] was 100 to 10000 nM.
In the case of `Cn1cc(C(F)(F)F)nc1-c1ccc(Cn2c(=N)n(C)c3cnc(-c4cccnc4C(F)(F)F)nc32)cc1` [Example T-025], the half-inhibitory concentration (IC50) was 100 to 10000 nM in assay [1], 0.25 to 10 µM in assay [2] (setting [4]) and at least 10 µM in assay [3] (setting [5]).
Take `COc1ncnc(C2CC2)c1-c1ncc2c(n1)n(Cc1cc(C)c(-c3nc(C(F)(F)F)cn3C)cc1C)c(=N)n2C` [Example T-026]: the IC50 is 100 to 10000 nM in assay [1], 0.25 to 10 µM in assay [2] (setting [4]) and at least 10 µM in assay [3] (setting [5]).
For `COc1nccc(C)c1-c1ncc2c(n1)n(Cc1ccc(-c3nc(C(F)(F)F)cn3C)cc1)c(=N)n2C` [Example T-028], in that order: 100 to 10000 nM, 0.25 to 10 µM and at least 10 µM.
For `Cn1cc(C(F)(F)F)nc1-c1ccc(Cn2c(=N)n(C)c3cnc(-c4cccnc4C4(C#N)CC4)nc32)cc1` [Example T-041], in that order: 100 to 10000 nM, 0.25 to 10 µM and at least 10 µM.
For `Cn1cc(C(F)(F)F)nc1-c1ccc(Cn2c(=N)n(C)c3cnc(-c4cccnc4CC(F)(F)F)nc32)cc1` [Example T-042], in that order: 100 to 10000 nM, 0.25 to 10 µM and at least 10 µM.
For `COc1ncccc1-c1ncc2c(n1)n(C1(c3ccc(-c4nc(C(F)(F)F)cn4C)cc3)CC1)c(=N)n2C` [Example T-043], the IC50 in assay [1] is 100 to 10000 nM; in assay [2] (setting [4]), 0.25 to 10 µM; in assay [3] (setting [5]), at least 10 µM.
The matching figures for `Cn1cc(C(F)(F)F)nc1-c1cc(F)c(Cn2c(=N)n(C)c3cnc(-c4ccccc4C(F)(F)F)nc32)c(F)c1` [Example T-046]: 100 to 10000 nM, 0.25 to 10 µM and at least 10 µM.
Consider `COn1cc(C(F)(F)F)nc1-c1ccc(Cn2c(=N)n(C)c3cnc(-c4ccccc4C(F)(F)F)nc32)nc1` [Example T-048], for which the IC50 in assay [1] is 100 to 10000 nM; in assay [2] (setting [4]), 0.25 to 10 µM; in assay [3] (setting [5]), at least 10 µM.
For `Cn1cc(C(F)(F)F)nc1-c1ccc(Cn2c(=N)n(C)c3cnc(-c4cccnc4C#N)nc32)cc1` [Example T-050], in that order: 100 to 10000 nM, at least 10 µM and at least 10 µM.
As for `CC(C)c1ccccc1-c1ncc2c(n1)n(Cc1ccc(-c3cccn3C)cc1)c(=N)n2C` [Example T-088], the half-inhibitory concentration (IC50) in assay [1] was in the range of 100 to 10000 nM.
